In patent US4034092A, “7-Acyl-3-(carboxyalkyl and carbamoylalkyl substituted oxadiazolylthiomethyl) cephalosporins” (SmithKline Corporation, priority 1976, dated 1977) one finds MIC and ED50 data, which are given here for two compounds.

As a reminder, the MIC is the smallest concentration in the dilution series that meets the test's criterion for growth inhibition. As usually defined, the ED50 is the dose that gives a 50% effect, or the effect in half of the subjects. Read a high ED50 as weaker potency.

In brackets after ≈: the same amount, converted by molar mass. Like-named read-outs stand apart in the source and are kept apart here.

One experiment concerns S. aureus HH 125. Nature of the experiment: in vitro MIC testing, S. aureus HH 125. In kind it is cell-based. The settings on record: Staphylococcus aureus, HH125. The method, then: (§1) The compounds of Formula I have exceptional antibacterial activity against both Gram-positive and Gram-negative organisms. Minimum inhibitory concentrations (MIC's) range from 0.2 to >200 μg./ml. in in vitro testing. Test results for the compound 7-D-mandelamido-3-(5-carboxymethyl-1,3,4-oxadiazol-2-ylthiomethyl)-3-cephem-4-carboxylic acid and its disodium salt, respectively, are given below: […]

For a further experiment, the system named is S. aureus SK 23390. Nature of the experiment: in vitro MIC testing, S. aureus SK 23390. It counts as cell-based. To be noted: Staphylococcus aureus, SK23390. On the procedure:
as §1

Another experiment has as its system S. villaluz SK 70390. In words: in vitro MIC testing, S. villaluz SK 70390. It counts as cell-based. On the procedure: as §1
Another experiment relates to Strep. faecalis HH 34358. Nature of the experiment: in vitro MIC testing, Strep. faecalis HH 34358. In kind it is cell-based. The settings on record: Enterococcus faecalis, HH34358. On the procedure: as §1
The next experiment concerns E. coli SK 12140. In words: in vitro MIC testing, E. coli SK 12140. It counts as cell-based. The settings on record: Escherichia coli, SK12140. On the procedure: as §1
Another experiment relates to E. coli HH 33779. Nature of the experiment: in vitro MIC testing, E. coli HH 33779. It counts as cell-based. To be noted: Escherichia coli, HH33779. The method, then: as §1
The test system of another experiment is Kleb. pneumo. SK 1200. Nature of the experiment: in vitro MIC testing, Kleb. pneumo. SK 1200. In kind it is cell-based. On the procedure:
as §1

The subject of a further experiment is Salmonella ATCC 12176. In words: in vitro MIC testing, Salmonella ATCC 12176. In kind it is cell-based. To be noted: ATCC12176. On the procedure:
as §1

For the next experiment, the system named is Shigella HH 117. Nature of the experiment: in vitro MIC testing, Shigella HH 117. In kind it is cell-based. To be noted: HH117. On the procedure:
as §1

In the next experiment the test system is Pseudo. aerug. HH 63. Nature of the experiment: in vitro MIC testing, Pseudo. aerug. HH 63. In kind it is cell-based. On the procedure: as §1
For experiment [1], the system named is Serratia marc. ATCC 13880. In words: in vitro MIC testing, Serratia marc. ATCC 13880. It counts as cell-based. The settings on record: ATCC13880. The method, then: as §1
The next experiment relates to Kleb. pneumo. SK 4200. In words: in vitro MIC testing, Kleb. pneumo. SK 4200. It counts as cell-based. The method, then: as §1
The subject of a further experiment is Proteus morgani 179. In words: in vitro MIC testing, Proteus morgani 179. In kind it is cell-based. The method, then: as §1
Experiment [2] deals with Entero. aerog. ATCC 13048. In words: in vitro MIC testing, Entero. aerog. ATCC 13048. It counts as cell-based. On the procedure: as §1
The next experiment relates to Entero. cloacae HH 31254. Nature of the experiment: in vitro MIC testing, Entero. cloacae HH 31254. In kind it is cell-based. The settings on record: Enterobacter cloacae, HH31254. On the procedure: as §1
The subject of a further experiment is E. coli 12140. In words: in vivo mouse protection test, E. coli 12140. The settings on record: Escherichia coli, sc; subcutaneous injection; against E. coli 12140. The text has this: (§2) 4200 upon subcutaneous injection.
Another experiment concerns Kleb. pneumo. 4200. Nature of the experiment: in vivo mouse protection test, Kleb. pneumo. 4200. The settings on record: sc, subcutaneous injection, against Kleb. pneumo. 4200.
Source text: as §2

As to `O=C([O-])Cc1nnc(SCC2=C(C(=O)[O-])N3C(=O)C(NC(=O)[C@H](O)c4ccccc4)[C@H]3SC2)o1.[Na+].[Na+]` (stereo partly drawn) [7-D-Mandelamido-3-(5-carboxymethyl-1,3,4-oxadiazol-2-ylthiomethyl)-3-cephem-4-carboxylic acid disodium salt], the MIC with S. aureus HH 125 came out at 3.1 µg/mL; in the experiment on S. aureus SK 23390, 0.8 µg/mL; in the experiment with S. villaluz SK 70390, 200 µg/mL; with Strep. faecalis HH 34358 it was 50 µg/mL; with E. coli SK 12140, 0.8 µg/mL; with E. coli HH 33779, 3.1 µg/mL. For the same compound, the MIC with Kleb. pneumo. SK 1200 is 0.4 µg/mL; in the experiment on Salmonella ATCC 12176, 0.8 µg/mL; in the experiment with Shigella HH 117 it was 0.4 µg/mL; with Pseudo. aerug. HH 63, over 200 µg/mL; in experiment [1] (Serratia) it was 50 µg/mL.

On to `O=C(O)Cc1nnc(SCC2=C(C(=O)O)N3C(=O)C(NC(=O)[C@H](O)c4ccccc4)[C@H]3SC2)o1` (stereo partly drawn) [7-D-Mandelamido-3-(5-carboxymethyl-1,3,4-oxadiazol-2-ylthiomethyl)-3-cephem-4-carboxylic acid], for which the MIC in the experiment on S. aureus HH 125 (in vitro, S. aureus HH 125, read-out: MIC) stood at 1.6 µg/mL (≈ 3.16 µM); in the experiment with S. aureus SK 23390 (in vitro, S. aureus SK 23390, read-out: MIC), 0.4 µg/mL (≈ 0.79 µM); in the experiment with S. villaluz SK 70390 it was 50 µg/mL (≈ 98.7 µM); in the experiment with Strep. faecalis HH 34358 (in vitro, Strep. faecalis HH 34358, read-out: MIC) it was 12.5 µg/mL (≈ 24.7 µM); with E. coli SK 12140, 0.8 µg/mL (≈ 1.58 µM); in the experiment on E. coli HH 33779 it was 1.6 µg/mL (≈ 3.16 µM). In addition, the MIC is 0.8 µg/mL (≈ 1.58 µM) with Kleb. pneumo. SK 4200; 0.8 µg/mL (≈ 1.58 µM) in the experiment on Kleb. pneumo. SK 1200 (in vitro, Kleb. pneumo. SK 1200, read-out: MIC); 0.8 µg/mL (≈ 1.58 µM) in the experiment on Salmonella ATCC 12176; 0.2 µg/mL (≈ 0.395 µM) against Shigella HH 117; over 200 µg/mL against Pseudo. aerug. HH 63; 25 µg/mL (≈ 49.4 µM) in experiment [1] (in vitro, Serratia marc. ATCC 13880, read-out: MIC). The MIC against Proteus morgani 179 worked out at 6.3 µg/mL (≈ 12.4 µM); in experiment [2], 3.1 µg/mL (≈ 6.12 µM); against Entero. cloacae HH 31254 it was 1.6 µg/mL (≈ 3.16 µM). The ED50 was 1.56 mg/kg with E. coli 12140 and 0.86 mg/kg in the experiment with Kleb. pneumo. 4200.
